Target: T1, ATP-citrate synthase (Homo sapiens, UniProt P53396)
T1 sequence (P53396 whole entry): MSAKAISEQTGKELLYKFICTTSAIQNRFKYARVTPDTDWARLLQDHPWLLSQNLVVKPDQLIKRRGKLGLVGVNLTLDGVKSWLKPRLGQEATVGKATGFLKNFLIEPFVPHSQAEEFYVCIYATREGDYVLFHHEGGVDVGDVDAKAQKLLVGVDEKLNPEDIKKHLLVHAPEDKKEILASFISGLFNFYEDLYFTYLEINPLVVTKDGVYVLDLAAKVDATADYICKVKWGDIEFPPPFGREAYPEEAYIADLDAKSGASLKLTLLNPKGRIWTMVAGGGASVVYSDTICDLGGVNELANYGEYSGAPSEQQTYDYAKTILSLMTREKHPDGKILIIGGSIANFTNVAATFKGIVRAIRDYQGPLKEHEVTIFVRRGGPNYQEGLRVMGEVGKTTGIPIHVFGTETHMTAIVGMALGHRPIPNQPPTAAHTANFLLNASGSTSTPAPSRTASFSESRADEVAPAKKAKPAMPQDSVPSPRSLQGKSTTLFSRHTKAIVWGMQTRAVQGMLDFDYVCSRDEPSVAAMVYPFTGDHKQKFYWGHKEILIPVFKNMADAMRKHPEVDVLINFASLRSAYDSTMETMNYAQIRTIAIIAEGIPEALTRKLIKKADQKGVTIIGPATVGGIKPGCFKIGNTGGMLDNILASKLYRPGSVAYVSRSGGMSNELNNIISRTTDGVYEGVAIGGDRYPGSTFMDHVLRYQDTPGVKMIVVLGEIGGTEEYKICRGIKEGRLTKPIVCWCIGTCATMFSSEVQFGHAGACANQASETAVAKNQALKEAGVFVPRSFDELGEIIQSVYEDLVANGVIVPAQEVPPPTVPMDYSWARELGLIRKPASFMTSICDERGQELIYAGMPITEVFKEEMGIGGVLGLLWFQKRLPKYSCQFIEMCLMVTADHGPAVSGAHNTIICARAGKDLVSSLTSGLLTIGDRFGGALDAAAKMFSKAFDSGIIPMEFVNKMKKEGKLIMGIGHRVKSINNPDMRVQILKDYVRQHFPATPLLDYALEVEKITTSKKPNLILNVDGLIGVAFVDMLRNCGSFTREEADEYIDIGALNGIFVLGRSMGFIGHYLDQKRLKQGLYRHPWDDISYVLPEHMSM
Assay: ACLY Enzyme Activity Assay
Procedure: Experimental method: ADP Glo luminescence method was used for determination. It reflects the activity of ACLY enzyme by quantitatively detecting the amount of ADP, and the enzymatic reaction catalyzed by ACLY is proportional to the amount of ADP detected by the luminescent signal. Firstly, the compound is diluted with 10% DMSO, and then […] of compound dilution is added to a 5 μl reaction system, so that the final reaction system has a DMSO content of 2%. The enzymatic reaction catalyzed by ACLY was carried out at 37° C. for 30 minutes. 5 μl reaction mixture contained the following components: 40 mM Tris, pH 8.0, 10 mM MgCl2, 5 mM DTT, ATP, CoA, sodium citrate, and ACLY. After the enzymatic reaction was complete, 2.5 μl of ADP Glo reagent was added to each reaction system and incubated at room temperature for 1 hour. Afterwards, 5 μl of kinase detection reagent was added and incubated at room temperature for 30 minutes. The luminous signal was detected using Envision (PerkinElmer, USA).

SMILES	IC50
CC(CCCCCC/C=C/CCCCCCC(C)(C(=O)O)c1ccccc1)(C(=O)O)c1ccccc1 (stereo unspecified) [US20250011272, Example M16]	4 µM
O=C(O)C1(CCCCCC/C=C/CCCCCCC2(C(=O)O)CC=CC2)CC=CC1 [US20250011272, Example M17]	3.1 µM
O=C(O)C1(CCCCCC/C=C/CCCCCCC2(C(=O)O)CCCCC2)CCCCC1 [US20250011272, Example M18]	16.5 µM

Other lines, results leading:

IC50	SMILES
0.76 µM	O=C(c1ccc(/C(=C/CCCCCCC2(C(=O)O)C=CCC2)CCCCCCC2(C(=O)O)C=CCC2)cc1)N1CCN(c2ccccn2)CC1 (stereo unspecified) [US20250011272, Example M38]
1.3 µM	O=C(O)c1ccc(-c2ccc(N3CCN(C(=O)c4ccc(/C(=C/CCCCCCC5(C(=O)O)C=CCC5)CCCCCCC5(C(=O)O)C=CCC5)cc4)CC3)nc2)cc1 (stereo unspecified) [US20250011272, Example M39]
1.69 µM	O=C(c1ccc(/C(=C/CCCCCCC2(C(=O)O)C=CCC2)CCCCCCC2(C(=O)O)C=CCC2)cc1)N1CCN(c2ccccc2F)CC1 (stereo unspecified) [US20250011272, Example M40]

Reference: BindingDB's records for patent US20250011272 (Shanghaiinstitute of Materia Medica, 2025)
